Measured values from the supplement of paper PMC10307832.

Tests used:
Test in all cases: relative viability (nuclei count vs DMSO), 5 days (fraction); higher = more cells survive
[1] = compound: C1=CC=C2C(=C1)N=C(S2)C(C#N)C3=NC(=NC=C3)NCCC4=CN=CC=C4 + CC(=O)Nc1cccc(-n2c(=O)n(C3CC3)c(=O)c3c(Nc4ccc(I)cc4F)n(C)c(=O)c(C)c32)c1 [Trametinib] (partner 0.02 µM)
In short: (§1)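 Lung cancer cell lines were pin-tool dosed in 1536-well plates on the day after seeding, with either a lone drug or a fixed anchor-drug dose plus five library-drug doses (not always all listed) in √10 steps. Nuclei were counted on 4× images after 5 days. Relative viability is the ratio of treated-well to vehicle-well nuclei counts, with each value a median of duplicate plates.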

[2] = compound: C1=CC=C2C(=C1)N=C(S2)C(C#N)C3=NC(=NC=C3)NCCC4=CN=CC=C4 + COc1cc2c(Oc3ccc(NC(=O)C4(C(=O)Nc5ccc(F)cc5)CC4)cc3F)ccnc2cc1OCCCN1CCOCC1 [Foretinib] (partner 0.25 µM)
In short: as §1

NVP-TAE684 + Vorinostat = compound: COc1cc(N2CCC(N3CCN(C)CC3)CC2)ccc1Nc1ncc(Cl)c(Nc2ccccc2S(=O)(=O)C(C)C)n1 [NVP-TAE684] + O=C(CCCCCCC(=O)Nc1ccccc1)NO [Vorinostat] (partner 1 µM)
In short: as §1

Vandetanib + Trametinib = compound: COc1cc2/c(=N/c3ccc(Br)cc3F)nc[nH]c2cc1OCC1CCN(C)CC1 [Vandetanib] + CC(=O)Nc1cccc(-n2c(=O)n(C3CC3)c(=O)c3c(Nc4ccc(I)cc4F)n(C)c(=O)c(C)c32)c1 [Trametinib] (partner 0.02 µM)
In short: as §1

| Cell Line | relative viability ([1]; first compound 0.005 µM) | relative viability ([1]; first compound 0.01581 µM) | relative viability ([1]; first compound 0.05 µM) | relative viability ([1]; first compound 0.1581 µM) | relative viability ([1]; first compound 0.5 µM) | relative viability ([2]; first compound 0.005 µM) | relative viability ([2]; first compound 0.01581 µM) | relative viability ([2]; first compound 0.05 µM) | relative viability ([2]; first compound 0.1581 µM) | relative viability ([2]; first compound 0.5 µM) | relative viability (NVP-TAE684 + Vorinostat; first compound 0.2 µM) | relative viability (NVP-TAE684 + Vorinostat; first compound 0.6325 µM) | relative viability (NVP-TAE684 + Vorinostat; first compound 2 µM) | relative viability (Vandetanib + Trametinib; first compound 0.02 µM) | relative viability (Vandetanib + Trametinib; first compound 0.06325 µM) | relative viability (Vandetanib + Trametinib; first compound 0.2 µM) | relative viability (Vandetanib + Trametinib; first compound 0.6325 µM) | relative viability (Vandetanib + Trametinib; first compound 2 µM) |
| --- | --- | --- | --- | --- | --- | --- | --- | --- | --- | --- | --- | --- | --- | --- | --- | --- | --- | --- |
| NCI-H727 | 0.39 | 0.364 | 0.399 | 0.381 | 0.407 | 1.07 | 0.73 | 0.922 | 1.03 | 0.809 | 1.09 | 1.25 | 0.869 | 0.417 | 0.379 | 0.366 | 0.364 | 0.329 |
| NCI-H838 | 0.576 | 0.507 | 0.492 | 0.561 | 0.593 | 0.981 | 1.04 | 0.99 | 0.928 | 0.926 | 0.76 | 0.692 | 0.334 | 0.528 | 0.463 | 0.539 | 0.484 | 0.533 |
| NCI-H1944 | 0.429 | 0.463 | 0.379 | 0.405 | 0.398 | 0.875 | 0.91 | 0.853 | 0.929 | 0.885 | 0.637 | 0.475 | 0.486 | 0.456 | 0.427 | 0.425 | 0.402 | 0.369 |
| SK-LU-1 | 0.461 | 0.437 | 0.413 | 0.532 | 0.474 | 0.749 | 0.824 | 0.867 | 0.991 | 0.884 | – | 0.822 | 0.487 | 0.453 | 0.344 | 0.562 | 0.567 | 0.458 |
| LC-2-ad | 0.881 | 0.979 | 0.891 | 0.928 | 0.829 | 0.858 | 0.994 | 0.883 | 0.921 | 0.828 | 0.725 | 0.665 | 0.251 | 0.899 | 0.858 | 0.939 | 0.861 | 0.662 |
| LOU-NH91 | 0.794 | 0.806 | 0.764 | 0.794 | 0.779 | 0.942 | 0.884 | 0.863 | 0.9 | 0.925 | 0.817 | 0.8 | 0.628 | 0.775 | 0.731 | 0.725 | 0.716 | 0.673 |
| NCI-H2009 | 0.26 | 0.264 | 0.26 | 0.314 | 0.334 | 1.17 | 1.2 | 1.18 | 1.32 | 1.23 | 0.733 | 0.554 | 0.495 | 0.263 | 0.252 | 0.286 | 0.282 | 0.275 |
| NCI-H647 | 0.407 | 0.515 | 0.45 | 0.546 | 0.451 | 1.08 | 1.27 | 1.28 | 1.32 | 1.14 | 0.792 | 0.6 | 0.174 | 0.458 | 0.474 | 0.469 | 0.451 | 0.436 |
| NCI-H1666 | 0.923 | 0.838 | 0.907 | 0.836 | 0.847 | 0.897 | 0.951 | 0.971 | 0.981 | 0.838 | 0.99 | 0.964 | 0.877 | 0.844 | 0.817 | 0.879 | 0.764 | 0.815 |
| A-427 | 0.882 | 0.714 | 0.683 | 0.81 | 0.804 | 1.22 | 1.21 | 0.946 | 1.22 | 1.32 | 0.908 | 0.848 | 0.738 | 0.734 | 0.662 | 0.745 | 0.737 | 0.742 |
| NCI-H2170 | 0.623 | 0.924 | 0.884 | 1.04 | 0.655 | 0.731 | 1.03 | 0.961 | 1.04 | 0.861 | 0.771 | 0.763 | 0.824 | 0.905 | 0.875 | 0.931 | 0.896 | 0.858 |
| NCI-H1395 | 0.983 | – | 0.949 | 1.2 | 0.979 | 0.868 | 0.912 | 1.05 | 0.996 | 0.967 | 0.71 | 0.554 | 0.711 | 1.06 | 1.01 | 0.956 | 1.13 | 1.05 |
| NCI-H650 | 0.969 | 0.968 | 0.863 | 1.04 | 1.04 | 0.946 | – | 0.993 | 0.942 | 1.1 | 0.428 | 0.298 | 0.406 | 0.995 | 0.927 | 0.947 | 0.929 | 0.981 |
| EBC-1 | – | – | – | – | – | 0.123 | 0.103 | 0.0991 | 0.112 | 0.0984 | – | – | – | – | – | – | – | – |
| HCC-44 | 1.06 | 1.1 | 1.02 | 1.07 | 0.967 | – | – | – | – | – | 1.18 | 1.14 | 0.928 | 1.1 | 1.04 | 1.06 | 1.15 | 1.06 |
| IA-LM | – | – | – | – | – | 0.691 | 1.21 | 1.17 | 1.24 | 0.916 | 0.66 | 0.897 | 0.7 | – | – | – | – | – |
| NCI-H522 | 0.98 | 0.846 | 0.766 | 0.755 | 0.761 | – | – | – | – | – | 0.78 | 0.855 | 0.764 | 0.87 | 0.818 | 0.856 | 0.791 | 0.771 |
| NCI-H1299 | – | – | – | – | – | 1.1 | 1.1 | 1.05 | 1.09 | 1.09 | – | – | – | – | – | – | – | – |
| ABC-1 | – | – | – | – | – | 1.2 | 1.01 | 0.935 | 1.12 | 1 | – | 1.01 | 0.527 | – | – | – | – | – |
| NCI-H1623 | – | – | – | – | – | 0.9 | 0.858 | 0.769 | 0.888 | 0.819 | – | – | – | – | – | – | – | – |
| NCI-H1563 | – | – | – | – | – | 0.85 | 0.922 | 1.03 | 0.952 | 0.914 | – | – | – | – | – | – | – | – |
| NCI-H1648 | – | 0.486 | – | 0.499 | 0.498 | – | – | – | – | – | 0.27 | 0.541 | 0.181 | 0.426 | 0.461 | 0.512 | 0.541 | 0.506 |
| A549 | – | – | – | – | – | – | 1.03 | 0.971 | 1.05 | 0.728 | – | – | – | – | – | – | – | – |
| Calu-6 | – | – | – | – | – | 0.875 | 0.873 | 0.817 | 0.884 | 0.822 | – | – | – | – | – | – | – | – |
